The results in this text go back to the kinase profiling compilation of Christmann-Franck et al. (2016).

Each structure is given as a SMILES string.

What all share (assay): KINOMEscan competition binding
Common to all, as to details: compound 10.0 µM

For experiment [1], the system named is FGFR3 (human), P22607 [G697C].
For experiment [2], the system named is FLT3 (human), P36888 [D835Y].
Experiment [3] has as its system KIT (human), P10721 [A829P].
The subject of experiment [4] is KIT (human), P10721 [D816H].
Experiment [5] deals with LRRK2 (human), Q5S007 [G2019S].
Experiment [6] concerns PIK3CA (human), P42336 [E542K].
The test system of experiment [7] is PIK3CA (human), P42336 [H1047L].
Experiment [8] relates to BMX (human), P51813 [V600E].
In experiment [9] the test system is EGFR (human), P00533 [G719C].
The test system of experiment [10] is EGFR (human), P00533 [L858R].
In experiment [11] the test system is MET (human), P08581 [M1250T].
Experiment [12] concerns PIK3CA (human), P42336 [M1043I].
The test system of experiment [13] is RET (human), P07949 [V804L].
For experiment [14], the system named is EGFR (human), P00533 [A750P; 747-749 del].

Sequence of BMX (human), P51813 [V600E] (P51813 whole entry, looked up, stated change not applied): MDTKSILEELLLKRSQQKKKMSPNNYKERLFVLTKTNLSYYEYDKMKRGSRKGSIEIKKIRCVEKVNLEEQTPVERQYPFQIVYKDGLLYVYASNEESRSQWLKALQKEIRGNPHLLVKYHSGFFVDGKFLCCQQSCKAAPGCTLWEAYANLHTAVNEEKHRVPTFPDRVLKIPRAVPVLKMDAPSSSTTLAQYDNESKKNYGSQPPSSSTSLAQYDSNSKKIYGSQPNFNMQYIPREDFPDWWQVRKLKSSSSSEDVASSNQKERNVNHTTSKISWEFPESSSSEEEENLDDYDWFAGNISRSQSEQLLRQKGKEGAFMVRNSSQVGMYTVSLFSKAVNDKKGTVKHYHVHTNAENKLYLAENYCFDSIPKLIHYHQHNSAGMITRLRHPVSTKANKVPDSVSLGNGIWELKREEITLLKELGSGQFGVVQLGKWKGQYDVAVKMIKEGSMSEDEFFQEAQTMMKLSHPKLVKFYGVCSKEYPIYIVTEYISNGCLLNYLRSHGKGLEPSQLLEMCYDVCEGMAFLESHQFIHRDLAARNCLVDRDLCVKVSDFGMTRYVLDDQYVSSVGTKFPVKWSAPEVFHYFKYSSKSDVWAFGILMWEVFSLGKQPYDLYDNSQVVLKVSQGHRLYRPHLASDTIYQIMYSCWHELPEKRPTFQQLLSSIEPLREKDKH
Sequence of PIK3CA (human), P42336 [H1047L] (P42336 whole entry H1047L, looked up): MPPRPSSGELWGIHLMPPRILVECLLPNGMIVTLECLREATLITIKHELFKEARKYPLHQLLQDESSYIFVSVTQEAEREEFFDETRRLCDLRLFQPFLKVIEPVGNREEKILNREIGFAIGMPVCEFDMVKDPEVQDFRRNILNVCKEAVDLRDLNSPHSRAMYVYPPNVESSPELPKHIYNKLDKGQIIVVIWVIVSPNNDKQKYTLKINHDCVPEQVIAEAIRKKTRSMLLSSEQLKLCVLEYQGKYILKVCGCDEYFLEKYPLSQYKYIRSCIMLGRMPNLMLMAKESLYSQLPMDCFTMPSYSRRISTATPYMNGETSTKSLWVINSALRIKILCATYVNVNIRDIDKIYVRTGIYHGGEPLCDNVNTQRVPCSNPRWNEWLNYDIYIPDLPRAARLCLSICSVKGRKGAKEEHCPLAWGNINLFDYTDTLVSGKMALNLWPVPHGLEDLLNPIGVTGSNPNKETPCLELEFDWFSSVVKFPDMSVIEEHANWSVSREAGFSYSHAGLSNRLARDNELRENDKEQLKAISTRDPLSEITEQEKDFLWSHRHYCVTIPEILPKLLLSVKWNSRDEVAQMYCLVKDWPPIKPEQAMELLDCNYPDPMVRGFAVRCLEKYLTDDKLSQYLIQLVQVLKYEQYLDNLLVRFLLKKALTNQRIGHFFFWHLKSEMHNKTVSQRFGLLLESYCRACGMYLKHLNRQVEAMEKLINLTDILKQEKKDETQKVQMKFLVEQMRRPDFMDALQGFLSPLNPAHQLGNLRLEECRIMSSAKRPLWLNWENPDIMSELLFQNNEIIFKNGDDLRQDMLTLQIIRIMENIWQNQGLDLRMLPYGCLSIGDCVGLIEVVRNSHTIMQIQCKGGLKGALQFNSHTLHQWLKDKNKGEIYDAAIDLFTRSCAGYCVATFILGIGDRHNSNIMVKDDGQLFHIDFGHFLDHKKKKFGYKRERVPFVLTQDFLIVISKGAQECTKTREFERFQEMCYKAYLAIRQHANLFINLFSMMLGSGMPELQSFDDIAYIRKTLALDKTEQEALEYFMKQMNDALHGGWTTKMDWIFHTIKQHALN
Sequence of PIK3CA (human), P42336 [E542K] (P42336 whole entry E542K, looked up): as the sequence (P42336 whole entry H1047L, looked up) above, with E542K, L1047H counted along it
Sequence of PIK3CA (human), P42336 [M1043I] (P42336 whole entry M1043I, looked up): as the sequence (P42336 whole entry H1047L, looked up) above, with M1043I, L1047H counted along it
Sequence of KIT (human), P10721 [D816H] (P10721 whole entry D816H, looked up): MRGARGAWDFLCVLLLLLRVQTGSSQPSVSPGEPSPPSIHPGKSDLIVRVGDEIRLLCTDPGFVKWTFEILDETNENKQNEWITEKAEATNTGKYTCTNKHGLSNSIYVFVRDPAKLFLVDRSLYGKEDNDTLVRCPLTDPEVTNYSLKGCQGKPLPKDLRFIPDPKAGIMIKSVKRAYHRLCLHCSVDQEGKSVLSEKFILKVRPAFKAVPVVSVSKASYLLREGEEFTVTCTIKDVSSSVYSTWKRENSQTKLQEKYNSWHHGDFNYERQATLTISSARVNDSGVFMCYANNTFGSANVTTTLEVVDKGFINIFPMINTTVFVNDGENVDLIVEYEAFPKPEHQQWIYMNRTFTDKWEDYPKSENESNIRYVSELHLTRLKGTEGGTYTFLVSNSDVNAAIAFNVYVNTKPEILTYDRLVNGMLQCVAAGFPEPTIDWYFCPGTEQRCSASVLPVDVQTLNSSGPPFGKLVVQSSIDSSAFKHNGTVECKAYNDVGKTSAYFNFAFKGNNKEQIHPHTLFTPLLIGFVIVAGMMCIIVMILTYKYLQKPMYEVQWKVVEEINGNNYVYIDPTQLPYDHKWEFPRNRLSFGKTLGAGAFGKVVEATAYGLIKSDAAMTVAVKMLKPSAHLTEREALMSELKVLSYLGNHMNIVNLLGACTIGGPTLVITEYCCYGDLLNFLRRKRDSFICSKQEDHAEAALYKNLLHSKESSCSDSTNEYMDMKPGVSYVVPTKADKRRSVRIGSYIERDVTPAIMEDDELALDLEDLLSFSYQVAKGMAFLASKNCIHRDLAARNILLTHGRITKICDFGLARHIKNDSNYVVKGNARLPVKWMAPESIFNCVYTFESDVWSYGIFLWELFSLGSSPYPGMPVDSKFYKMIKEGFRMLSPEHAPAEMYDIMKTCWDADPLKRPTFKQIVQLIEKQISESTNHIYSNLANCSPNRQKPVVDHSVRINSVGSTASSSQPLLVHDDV
Sequence of KIT (human), P10721 [A829P] (P10721 whole entry A829P, looked up): as the sequence (P10721 whole entry D816H, looked up) above, with H816D, A829P counted along it
Sequence of RET (human), P07949 [V804L] (P07949 whole entry V804L, looked up): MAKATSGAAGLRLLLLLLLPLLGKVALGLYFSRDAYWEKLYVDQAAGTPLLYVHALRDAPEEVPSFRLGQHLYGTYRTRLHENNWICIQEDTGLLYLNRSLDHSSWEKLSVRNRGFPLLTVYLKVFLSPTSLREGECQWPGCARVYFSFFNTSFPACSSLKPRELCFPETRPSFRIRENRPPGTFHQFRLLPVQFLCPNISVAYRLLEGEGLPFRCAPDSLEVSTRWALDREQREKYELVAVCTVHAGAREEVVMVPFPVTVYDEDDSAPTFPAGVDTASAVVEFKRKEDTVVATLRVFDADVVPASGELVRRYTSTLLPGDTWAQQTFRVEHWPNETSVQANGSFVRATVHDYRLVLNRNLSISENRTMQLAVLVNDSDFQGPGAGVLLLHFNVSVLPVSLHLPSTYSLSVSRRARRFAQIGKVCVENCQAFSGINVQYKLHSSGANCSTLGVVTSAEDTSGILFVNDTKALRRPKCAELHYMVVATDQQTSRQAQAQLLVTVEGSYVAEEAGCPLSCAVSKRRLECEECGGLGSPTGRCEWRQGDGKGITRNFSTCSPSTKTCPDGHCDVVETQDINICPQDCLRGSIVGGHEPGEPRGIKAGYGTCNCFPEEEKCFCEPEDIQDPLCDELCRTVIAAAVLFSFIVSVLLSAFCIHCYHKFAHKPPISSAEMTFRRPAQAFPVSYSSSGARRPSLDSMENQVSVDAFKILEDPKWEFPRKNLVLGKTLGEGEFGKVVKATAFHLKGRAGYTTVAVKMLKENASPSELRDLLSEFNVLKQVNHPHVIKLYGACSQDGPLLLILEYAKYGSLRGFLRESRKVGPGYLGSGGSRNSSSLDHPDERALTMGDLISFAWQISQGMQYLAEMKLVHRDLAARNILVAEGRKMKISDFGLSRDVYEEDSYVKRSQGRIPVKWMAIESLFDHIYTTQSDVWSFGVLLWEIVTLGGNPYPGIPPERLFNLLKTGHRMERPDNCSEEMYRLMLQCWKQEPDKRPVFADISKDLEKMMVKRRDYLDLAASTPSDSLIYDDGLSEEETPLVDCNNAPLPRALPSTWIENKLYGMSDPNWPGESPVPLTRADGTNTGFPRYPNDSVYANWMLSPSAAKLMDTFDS
Sequence of FGFR3 (human), P22607 [G697C] (P22607 whole entry G697C, looked up): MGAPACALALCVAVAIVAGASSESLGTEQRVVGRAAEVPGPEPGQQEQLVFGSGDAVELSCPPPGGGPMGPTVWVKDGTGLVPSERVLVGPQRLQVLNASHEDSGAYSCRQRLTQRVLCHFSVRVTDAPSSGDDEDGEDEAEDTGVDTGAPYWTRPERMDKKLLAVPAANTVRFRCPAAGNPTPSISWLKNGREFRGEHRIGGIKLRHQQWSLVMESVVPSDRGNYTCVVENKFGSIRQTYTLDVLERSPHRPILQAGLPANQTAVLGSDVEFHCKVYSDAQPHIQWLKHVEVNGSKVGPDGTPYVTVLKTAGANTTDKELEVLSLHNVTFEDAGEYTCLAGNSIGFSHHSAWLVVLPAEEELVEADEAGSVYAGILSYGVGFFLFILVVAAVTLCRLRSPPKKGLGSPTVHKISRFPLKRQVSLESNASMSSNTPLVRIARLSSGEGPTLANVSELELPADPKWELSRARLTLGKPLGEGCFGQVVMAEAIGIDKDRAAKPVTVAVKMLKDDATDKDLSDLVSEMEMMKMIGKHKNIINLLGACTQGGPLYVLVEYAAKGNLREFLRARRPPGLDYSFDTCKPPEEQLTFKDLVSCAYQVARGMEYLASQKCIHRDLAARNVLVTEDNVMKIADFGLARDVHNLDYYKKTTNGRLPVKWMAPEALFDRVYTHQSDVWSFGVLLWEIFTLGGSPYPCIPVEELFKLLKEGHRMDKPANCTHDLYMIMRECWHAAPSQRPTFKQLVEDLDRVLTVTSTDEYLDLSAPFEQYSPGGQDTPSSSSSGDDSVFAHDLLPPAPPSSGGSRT

For the molecule `C[C@@H](Oc1cc(-c2cnn(C3CCNCC3)c2)cnc1N)c1c(Cl)ccc(F)c1Cl`, the kinase still bound, per cent of control in experiment [1] came out at 27%; in [2], 11%; in experiment [3] it was 35%; in [4], 50%; in experiment [5], 57%; in experiment [6] it was 100%. Further, in [7], the kinase still bound, per cent of control amounted to 48%.
Consider `O=C(NOC[C@H](O)CO)c1ccc(F)c(F)c1Nc1ccc(I)cc1F`, for which the kinase still bound, per cent of control in [8] came to 100%; in experiment [9], 86%; in experiment [10], 79%; in experiment [1], 88%; in experiment [2] it was 100%; in [4], 91%. The kinase still bound, per cent of control came out at 100% in experiment [5]; 92% in experiment [11]; 57% in experiment [6]; 45% in experiment [7]; 42% in [12]; 93% in experiment [13].
Consider `Nc1ccc(-c2ccc3ncc4ccc(=O)n(-c5cccc(C(F)(F)F)c5)c4c3c2)cn1`, for which the kinase still bound, per cent of control in [8] stood at 95%; in [14] it was 100%; in [9] it was 71%; in experiment [10], 100%; in [1], 89%; in experiment [2] it was 32%. The kinase still bound, per cent of control is 64% in [3]; 80% in experiment [4]; 81% in experiment [5]; 100% in experiment [11]; 0% in experiment [7]; 100% in [13].
For the molecule `COCC(=O)NC/C=C/c1ccc2ncnc(Nc3ccc(Oc4ccc(C)nc4)c(C)c3)c2c1`, the kinase still bound, per cent of control in experiment [8] worked out at 80%; in experiment [1] it was 90%; in experiment [4] it was 100%; in experiment [5], 98%; in experiment [11], 100%; in experiment [6], 100%. Moreover, the kinase still bound, per cent of control in [7], in [12] and in experiment [13] was 100% each time.
`O=C(O)c1ccc(Nc2ncc3c(n2)-c2ccc(Cl)cc2C(c2c(F)cccc2F)=NC3)cc1`: the kinase still bound, per cent of control in experiment [14] is 28%; in [9], 77%; in experiment [10], 29%; in [1] it was 12%; in experiment [2], 72%; in [3], 100%. The kinase still bound, per cent of control in experiment [5] was found to be 100%; in experiment [11], 58%; in experiment [7], 79%; in experiment [13], 88%.
As for `Cc1ccc2nc(NCCN)c3ncc(C)n3c2c1`, the kinase still bound, per cent of control in [8] came to 60%; in experiment [14] it was 100%; in experiment [1], 100%; in experiment [2], 97%; in [4], 100%; in experiment [11], 100%. Besides, the kinase still bound, per cent of control in experiment [6], in experiment [7], in experiment [12] and in experiment [13] was 100% in each case.
As to `NC(=O)Nc1cc(-c2cccc(F)c2)sc1C(=O)N[C@@H]1CCCNC1`, the kinase still bound, per cent of control in experiment [8] is 89%; in experiment [14], 0.65%; in experiment [9], 0.05%; in experiment [10], 2.2%; in experiment [1] it was 22%; in experiment [2], 0.1%. Besides, the kinase still bound, per cent of control in experiment [5] is 4.2%; in experiment [11], 4.7%; in experiment [6] it was 100%; in [7], 100%; in [12], 100%; in [13], 0%.
In the case of `CNC(=O)c1cc(Oc2ccc(NC(=O)Nc3ccc(Cl)c(C(F)(F)F)c3)cc2)ccn1`, the kinase still bound, per cent of control is 0.05% in [8]; 39% in [1]; 3.2% in [2]; 59% in experiment [3]; 36% in experiment [4]; 83% in [11]. In [13], this molecule returned a kinase still bound, per cent of control of 0.1%.
On to `Cc1cc([C@@H](C)Nc2ccccc2C(=O)O)c2nc(N3CCOCC3)cc(=O)n2c1`, for which the kinase still bound, per cent of control in experiment [8] was 92%; in [14], 100%; in [9], 95%; in [10], 100%; in experiment [1] it was 100%; in experiment [2], 54%. Further, the kinase still bound, per cent of control came out at 100% in [3]; 88% in [4]; 100% in experiment [5]; 87% in experiment [11]; 99% in experiment [13].
With `CCN(CC)CCCCNc1ncc2cc(-c3cc(OC)cc(OC)c3)c(NC(=O)NC(C)(C)C)nc2n1`, the kinase still bound, per cent of control in experiment [8] turned out to be 100%; in experiment [1], 3.7%; in [2], 100%.
`CCCS(=O)(=O)Nc1ccc(F)c(C(=O)c2c[nH]c3ncc(-c4ccc(Cl)cc4)cc23)c1F`: the kinase still bound, per cent of control came out at 0.2% in experiment [8]; 74% in [14]; 28% in [9]; 100% in experiment [1]; 89% in [3]; 98% in experiment [4]. Besides, the kinase still bound, per cent of control was 70% in [5]; 25% in [11]; 100% in experiment [6]; 95% in experiment [7]; 90% in experiment [13].
For `N#Cc1c(NC(=O)c2cccc3ccccc23)sc2c1CCCC2`, the kinase still bound, per cent of control in experiment [8] turned out to be 93%; in [1] it was 83%; in experiment [2], 80%; in experiment [3] it was 87%; in experiment [4] it was 85%; in experiment [5], 94%. The kinase still bound, per cent of control came out at 100% in experiment [11]; 100% in [6]; 70% in experiment [7]; 100% in experiment [12]; 90% in [13].
